Source: patent US7019034B2, “Compositions and methods for reducing serum glucose and triglyceride levels in diabetic mammals” (Allergan, Inc., priority 2003, dated 2006)

What was measured:
[1] = biological target: T1, RARγ (Homo sapiens, UniProt P13631); assay: chimeric receptor transactivation assay, RARγ; format: cell-based
T1 sequence (P13631 185-419 limits assumed): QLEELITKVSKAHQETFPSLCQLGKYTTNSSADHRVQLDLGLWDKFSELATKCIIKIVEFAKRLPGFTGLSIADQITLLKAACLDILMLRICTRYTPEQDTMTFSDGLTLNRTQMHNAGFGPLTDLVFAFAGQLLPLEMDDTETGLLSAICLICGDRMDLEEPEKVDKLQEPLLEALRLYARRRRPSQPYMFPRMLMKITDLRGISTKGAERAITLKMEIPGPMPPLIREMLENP
Source text: The specification of U.S. Pat. No. 5,455,265 is hereby expressly incorporated by reference.
Table 1 discloses the activity of certain exemplary compounds of the invention in the above-described receptor transactivation and binding assays. Particularly, the transactivation data pertaining to activation of the RAR receptors were obtained in the chimeric assay, and the transactivation data pertaining to the activation of RXR receptors were obtained in the holoreceptor assay.
Efficacy in a transactivation assay is expressed as a percentage of the maximum potency attained by the compound compared to a standard which, in this case, is the compound named (2E,4E,1′S,2′S)-3-methyl-5-[2′-methyl-2′-(5,5,8,8-tetramethyl-5,6,7,8-tetrahydro-naphthalen-2-yl)-cyclopropyl]-penta-2,4-dienoic acid.
(§1) In Table 1 NA stands for not active at all as an agonist. ND stands for not determined. The first row of numbers pertaining to each compound is the measured EC50 number. […] The third row of numbers pertaining to each compound is the binding Ki number.

[2] = biological target: T2, RXRα (Homo sapiens, UniProt P19793); assay: holoreceptor transactivation assay, RXRα; format: cell-based
T2 construct: expressed in transfected cells
T2 sequence (P19793 1-462): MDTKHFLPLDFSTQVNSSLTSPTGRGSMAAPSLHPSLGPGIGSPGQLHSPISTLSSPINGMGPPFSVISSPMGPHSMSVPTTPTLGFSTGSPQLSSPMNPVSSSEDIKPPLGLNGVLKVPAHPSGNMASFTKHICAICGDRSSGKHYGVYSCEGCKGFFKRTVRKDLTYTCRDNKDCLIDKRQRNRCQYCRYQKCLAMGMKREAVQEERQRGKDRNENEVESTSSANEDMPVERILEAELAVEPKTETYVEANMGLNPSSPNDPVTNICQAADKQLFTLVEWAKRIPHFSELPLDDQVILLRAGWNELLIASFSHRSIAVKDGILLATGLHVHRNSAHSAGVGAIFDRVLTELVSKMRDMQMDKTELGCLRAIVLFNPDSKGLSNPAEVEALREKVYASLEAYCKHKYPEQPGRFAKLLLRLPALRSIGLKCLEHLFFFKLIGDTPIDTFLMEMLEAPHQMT
Source text: A holoreceptor transactivation assay and a ligand binding assay which measure the antagonist/agonist like activity of the compounds of the invention, or their ability to bind to the several retinoid receptor subtypes, respectively, are described in published PCT Application No. WO WO93/11755 (particularly on pages 30–33 and 37–41) published on Jun. 24, 1993, the specification of which is also incorporated herein by reference. […] The results obtained in this assay are expressed in EC50 numbers, as they are also in the chimeric receptor transactivation assay. The results of the ligand binding assay are expressed in Ki numbers. (See Cheng et al. Biochemical Pharmacology Vol. 22 pp 3099–3108, expressly incorporated herein by reference.)
Particularly, the transactivation data pertaining to activation of the RAR receptors were obtained in the chimeric assay, and the transactivation data pertaining to the activation of RXR receptors were obtained in the holoreceptor assay.
as §1

[3] = system: diabetic db/db mice; assay: serum glucose in diabetic db/db mice, 7 days oral dosing; format: in vivo; settings: for Glucose: 50 mg/kg once daily oral gavage, mean +/- SD
Description: (§2) Effects of RXR agonists on serum glucose and triglyceride were studied in diabetic db/db mice. […] Briefly, animals were dosed once daily by oral gavage using corn oil vehicle for a period of 7 consecutive days. Serum samples were collected on day 1 (first day of dosing) and day 7 at hour 0 (immediately prior to dosing) and hour 3 (approximately 3 hours after dosing). Serum glucose and triglyceride levels of these samples were measured as described in the reference manuals: Glucose/HK. Boehringer Mannheim Corporation, 9115 Hague Road, Indianapolis, Ind., USA and Triglycerides/GPO. Roche Diagnostics Corporation, 9115 Hague Road, Indianapolis, Ind., USA, expressly incorporated herein. Only those animals with glucose levels of higher than 300 mg/dl at 0 hour on day 1 were considered as diabetic and included in data analysis.
(§3) A measured amount of dosing solution was withdrawn into a metal feeding tube attached to a marked syringe. Animals were restrained by grasping of their back skin while the feeding tube was gently inserted into their mouth and into esophagus. A fixed amount of the dosing solution was displaced into the esophagus/stomach of the animal by pushing the plunger of the syringe. Serum samples were collected from the retro-orbital sinus while the animals were anesthetized. These samples were analyzed by using commercially available kits from Boehringer Manheim for their glucose levels and Roche Diagnostics for their triglyceride levels in a Boehringer Manheim Hatachi Clinical Chemistry Analyzer.
(§4) For glucose assay, an enzymatic reaction using hexokinase and glucose-6-phosphodehydrogenase to catalyze glucose to gluconate-6phosphate and NADPH was employed. The amount of NADPH formed during these reactions was equivalent to the amount of glucose in the serum and was measured with a spectrophotometer. For triglycerides, a series of enzymatic reactions which included lipase, glycerol kinase and glycerol phosphate oxidase to formed dihydroacetone phosphate and peroxidase. The peroxidase produced catalyzed a reaction between peroxide and 4-aminophenazone and 4-chlorophenol in a Trinder reaction to generate a color change. This color change was measured by a spectrophotometer and reflected the amount of triglyceride in the sample.

[4] = system: diabetic db/db mice; assay: serum triglycerides in diabetic db/db mice, 7 days oral dosing; format: in vivo; settings: for Triglycerides: 50 mg/kg once daily oral gavage, mean +/- SD
Description: as §2, §3, §4

[5] = system: young db/db mice; assay: serum thyroxine (T4) in young db/db mice, 14 days oral dosing; format: in vivo
Description: In another study the efficacy of RXR agonists in the prevention of diabetes was tested in young db/db mice. […] Serum samples were analyzed by using commercially available kits from Boehring Manheim for their thyroxine (T4) levels in a Boehringer Manheim Hatachi Clinical Chemistry Analyzer as described in the reference manual of Boehringer Mannheim Corporation, 9115 Hague Road, Indianapolis, Ind., USA, expressly incorporated herein.

[6] = Day 1, 0 hr (immediately prior to dosing)

CCCOc1cc2c(cc1\C(C)=C(F)/C=C/C(C)=C/C(=O)O)C(C)(C)CCC2(C)C [Compound 4]
EC50 ([1]; NA = not active at all as an agonist, read-out: RAR Trans. EC50 γ): > 1000 nM
RAR γ efficacy in percentage as compared to the standard compound ([1]; number in brackets): 15%

CCOc1cc2c(cc1\C(CC)=C(F)/C=C/C(C)=C/C(=O)O)C(C)(C)CCC2(C)C [Compound 2, (2E,4E,6E)-7-(3-Ethoxy-5,5,8,8-tetramethyl-5,6,7,8-tetrahydronaphthalen-2-yl)-6-fluoro-3-methylnona-2,4,6-trienoic acid]
EC50 ([2]; NA = not active at all as an agonist, read-out: RXR Trans. EC50 α): 0.8 nM
RXR α efficacy in percentage as compared to the standard compound ([2]; number in brackets): 17%
Glucose [3, 6]: 529 ± 123 mg/dL
Glucose ([3]; Day 1, 3 hr): 436 ± 127 mg/dL
Glucose ([3]; Day 7, 0 hr): 414 ± 105 mg/dL
Glucose ([3]; Day 7, 3 hr): 350 ± 140 mg/dL
effect on serum glucose in diabetic mouse (in words) ([3]; mouse, in vivo): capable of lowering serum glucose
Triglycerides [4, 6]: 168 ± 74 mg/dL
Triglycerides ([4]; Day 1, 3 hr): 142 ± 94 mg/dL
Triglycerides ([4]; Day 7, 0 hr): 157 ± 106 mg/dL
Triglycerides ([4]; Day 7, 3 hr): 95 ± 33 mg/dL
effect on serum triglyceride (in words) ([4]; mouse, in vivo): does not affect
Serum thyroxine ([5]; 50 mg/kg orally for 14 days, mean +/- SD (n = 7)): 1.30 ± 0.28 µg/dL
effect on serum T4 (in words) ([5]; mouse, in vivo): does not affect
